Data published in patent US12383549B2, “Combination therapy of crenolanib and apoptosis pathway agents for the treatment of proliferative disorders” (Arog Pharmaceuticals, Inc., priority 2020, dated 2025).

Legend:
[1] = tested on: relapsed or refractory AML patients with activating FLT3 mutations (FLT3-ITD); experiment: Clinical trial NCT02400281: oral crenolanib besylate in combination with intravenous azacitidine, single-patient case reports; type: in vivo, human
Excerpt: For the majority of patients, the clinical response is short-lived. Response criteria for AML clinical trials are adapted from the International Working Group for AML (Cheson, Bennett et al. 2003). Responders are patients who obtain a Complete Response (CR), Complete Response with incomplete blood count recovery (CRi), or Partial Remission (PR). Briefly, criteria are as follows: • 1. Complete Remission (CR): • a. Peripheral blood counts: • i. No circulating blasts • ii. Neutrophil count ≥1.0×10^9/L • iii. Platelet count ≥100×10^9/L • b. Bone marrow aspirate and biopsy: • i. ≤5% blasts • ii. No Auer Rods • iii. No extramedullary leukemia • 2. Complete remission with incomplete blood count recovery (CRi): • a. Peripheral blood counts: • i. No circulating blasts • ii. Neutrophil count <1.0×10^9/L, or • iii. Platelet count <100×10^9/L • b. Bone marrow aspirate and biopsy • i. ≤5% blasts • ii. No Auer Rods • iii. No extramedullary leukemia • 3. Partial remission: • a. All CR criteria if abnormal before treatment except: • b. ≥50% reduction in bone marrow blast but still >5%
(§1) To overcome the poor prognosis of the persistent FLT3-ITD mutation, the patient was provided oral crenolanib besylate in combination with intravenous azacitidine on a clinical trial for relapsed or refractory AML patients with activating FLT3 mutations (NCT02400281). At baseline, the patient presented with 64% bone marrow blasts. The patient began treatment with 75 mg/m^2/day of azacitidine for 7 days and 60 mg of oral crenolanib besylate three times daily for the remainder of the 28 days cycle.
as §1, with “13%” for “64%”, “80” for “60”, “daily.” for “daily for the remainder of the 28 days cycle.”

[2] = tested on: PDGFR, FLT3, and TRK kinases; settings: versus other kinases, including c-KIT, VEGFR2, TIE2, FGFR2, EGFR, ERBB2, and SRC; cited from earlier work
[3] = tested on: PB and BM blasts of leukemia patients; settings: cited from earlier work

CC1(COc2ccc3c(c2)ncn3-c2ccc3cccc(N4CCC(N)CC4)c3n2)COC1 [crenolanib besylate]
bone marrow blasts ([1]; Example 1: person, FLT3-ITD relapsed AML, baseline 64% blasts, azacitidine 75 mg/m^2/day for 7 days + crenolanib besylate 60 mg oral three times daily, after 27 days): 3% | clinical response ([1]; Example 1: same patient and regimen with azacitidine, after 27 days, neutrophils recovered, platelets partially recovered): CRi | bone marrow blasts ([1]; Example 2: person, FLT3-ITD AML relapsed after transplant, baseline 13% blasts, azacitidine 75 mg/m^2/day for 7 days + crenolanib besylate 80 mg oral three times daily, after 28 days): 1% | clinical response ([1]; Example 2: same patient and regimen with azacitidine, after 28 days): morphological leukemia free state | clinical response on continued single agent therapy ([1]; Example 2: single agent crenolanib besylate for an additional 28 days): maintained a MLFS

CC1(COc2ccc3c(c2)ncn3-c2ccc3cccc(N4CCC(N)CC4)c3n2)COC1 [crenolanib]
selectivity for PDGFR, FLT3, and TRK kinases [2]: significantly more selective

CNC(=O)c1cc(Oc2ccc(NC(=O)Nc3ccc(Cl)c(C(F)(F)F)c3)cc2)ccn1 [sorafenib]
bone marrow (BM) blast reduction [3]: only modest BM blast reductions
